Reference: patent US20230085307A1, “PYRIDAZINONE COMPOUND AND HERBICIDE” (NISSAN CHEMICAL CORPORATION, priority 2019, published 2023)

Tests used:
[1] = test system: late watergrass; experiment: Test Example 1: herbicidal activity, application before weed generation under submerged conditions (Table 16, symbol A); type: in vivo, late watergrass (Echinochloa oryzicola); details: 269 g/ha applied herbicide
Summary of the method: (§1)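 Alluvial soil was flooded to 4 cm depth, weed seeds were sown mixed and 2.5-leaf rice seedlings were transplanted. On sowing day, the compound's emulsion, diluted in water to a set dose, was applied to the water surface. Plants grew at 25–30 °C and were scored 0–5 after three weeks.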

[2] = test system: wild oat; experiment: Test Example 4: herbicidal effect by soil treatment (Table 19, symbol I); type: in vivo, wild oat (Avena fatua); details: 269 g/ha
Summary of the method: (§2)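 In this soil treatment, the formulated compound reached the seeds only through the soil: seeds were buried about 1.5 cm deep in sterilized diluvial soil, then the diluted emulsion was sprayed over the surface. After three weeks at 25° C. to 30° C. in a greenhouse, effects were graded on criteria from an earlier test.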

[3] = test system: Chinese sprangletop; experiment: Test Example 3: herbicidal effect by foliage application, Wagner pot (Table 18, symbol D); type: in vivo, chinese sprangletop (Leptochloa chinensis); details: 269 g/ha
Summary of the method: (§3)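 Plants were sown in alluvial soil held under 0.1–0.5 cm standing water and grown 14 days in a greenhouse at 25–30 °C. An emulsifiable formulation, water-diluted to the set dose, was then sprayed onto the foliage, and effects were scored three weeks later using previously defined criteria.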

[4] = test system: barnyard grass; experiment: Test Example 4: herbicidal effect by soil treatment (Table 19, symbol H); type: in vivo, barnyard grass (Echinochloa crus-galli); details: 269 g/ha
Summary of the method: as §2

[5] = test system: persian speedwell; experiment: Test Example 4: herbicidal effect by soil treatment (Table 19, symbol R); type: in vivo, Persian speedwell (Veronica persica); details: 269 g/ha
Summary of the method: as §2

[6] = test system: Japanese bulrush; experiment: Test Example 1: herbicidal activity, application before weed generation under submerged conditions (Table 16, symbol B); type: in vivo, Japanese bulrush (Schoenoplectus juncoides); details: 269 g/ha applied herbicide
Summary of the method: as §1

[7] = test system: chickweed; experiment: Test Example 4: herbicidal effect by soil treatment (Table 19, symbol P); type: in vivo, common chickweed (Stellaria media); details: 269 g/ha
Summary of the method: as §2

[8] = test system: southern crabgrass; experiment: Test Example 5: herbicidal effect by foliage application, plastic box (Table 20, symbol F); type: in vivo, southern crabgrass (Digitaria ciliaris); details: foliage application, 269 g/ha, evaluated three weeks after application
Summary of the method: (§4)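 Plants were sown into sterilized diluvial soil under about 1.5 cm cover and kept in a greenhouse at 25° C. to 30° C. Fourteen days on, foliage received an even spray of the diluted emulsion. Herbicidal or crop effect was judged three weeks afterwards.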

[9] = test system: green foxtail; experiment: Test Example 5: herbicidal effect by foliage application, plastic box (Table 20, symbol G); type: in vivo, green foxtail (Setaria viridis); details: foliage application, 269 g/ha, evaluated three weeks after application
Summary of the method: as §4

[10] = test system: oval-leafed pondweed; experiment: Test Example 1: herbicidal activity, application before weed generation under submerged conditions (Table 16, symbol C); type: in vivo, oval-leafed pondweed (Monochoria vaginalis); details: 269 g/ha applied herbicide
Summary of the method: as §1

[11] = test system: green foxtail; experiment: Test Example 4: herbicidal effect by soil treatment (Table 19, symbol G); type: in vivo, green foxtail (Setaria viridis); details: 269 g/ha
Summary of the method: as §2

[12] = test system: blackgrass; experiment: Test Example 5: herbicidal effect by foliage application, plastic box (Table 20, symbol J); type: in vivo, blackgrass (Alopecurus myosuroides); details: foliage application, 269 g/ha, evaluated three weeks after application
Summary of the method: as §4

[13] = test system: chickweed; experiment: Test Example 5: herbicidal effect by foliage application, plastic box (Table 20, symbol P); type: in vivo, common chickweed (Stellaria media); details: foliage application, 269 g/ha, evaluated three weeks after application
Summary of the method: as §4

[14] = test system: persian speedwell; experiment: Test Example 5: herbicidal effect by foliage application, plastic box (Table 20, symbol R); type: in vivo, Persian speedwell (Veronica persica); details: foliage application, 269 g/ha, evaluated three weeks after application
Summary of the method: as §4

[15] = test system: velvetleaf; experiment: Test Example 4: herbicidal effect by soil treatment (Table 19, symbol M); type: in vivo, velvetleaf (Abutilon theophrasti); details: 269 g/ha
Summary of the method: as §2

[16] = test system: blackgrass; experiment: Test Example 4: herbicidal effect by soil treatment (Table 19, symbol J); type: in vivo, blackgrass (Alopecurus myosuroides); details: 269 g/ha
Summary of the method: as §2

[17] = test system: barnyard grass; experiment: Test Example 5: herbicidal effect by foliage application, plastic box (Table 20, symbol H); type: in vivo, barnyard grass (Echinochloa crus-galli); details: foliage application, 269 g/ha, evaluated three weeks after application
Summary of the method: as §4

[18] = test system: lambsquarters; experiment: Test Example 5: herbicidal effect by foliage application, plastic box (Table 20, symbol O); type: in vivo, lambsquarters (Chenopodium album); details: foliage application, 269 g/ha, evaluated three weeks after application
Summary of the method: as §4

[19] = test system: lambsquarters; experiment: Test Example 4: herbicidal effect by soil treatment (Table 19, symbol O); type: in vivo, lambsquarters (Chenopodium album); details: 269 g/ha
Summary of the method: as §2

[20] = test system: Italian ryegrass; experiment: Test Example 4: herbicidal effect by soil treatment (Table 19, symbol K); type: in vivo, Italian ryegrass (Lolium multiflorum); details: 269 g/ha
Summary of the method: as §2

[21] = test system: windgrass; experiment: Test Example 4: herbicidal effect by soil treatment (Table 19, symbol L); type: in vivo, windgrass (Apera spica-venti); details: 269 g/ha
Summary of the method: as §2

[22] = test system: windgrass; experiment: Test Example 5: herbicidal effect by foliage application, plastic box (Table 20, symbol L); type: in vivo, windgrass (Apera spica-venti); details: foliage application, 269 g/ha, evaluated three weeks after application
Summary of the method: as §4

[23] = test system: velvetleaf; experiment: Test Example 5: herbicidal effect by foliage application, plastic box (Table 20, symbol M); type: in vivo, velvetleaf (Abutilon theophrasti); details: foliage application, 269 g/ha, evaluated three weeks after application
Summary of the method: as §4

[24] = test system: wild oat; experiment: Test Example 5: herbicidal effect by foliage application, plastic box (Table 20, symbol I); type: in vivo, wild oat (Avena fatua); details: foliage application, 269 g/ha, evaluated three weeks after application
Summary of the method: as §4

[25] = test system: Italian ryegrass; experiment: Test Example 5: herbicidal effect by foliage application, plastic box (Table 20, symbol K); type: in vivo, Italian ryegrass (Lolium multiflorum); details: foliage application, 269 g/ha, evaluated three weeks after application
Summary of the method: as §4

[26] = test system: redroot pigweed; experiment: Test Example 4: herbicidal effect by soil treatment (Table 19, symbol N); type: in vivo, redroot pigweed (Amaranthus retroflexus); details: 269 g/ha
Summary of the method: as §2

[27] = test system: barnyard grass; experiment: Test Example 3: herbicidal effect by foliage application, Wagner pot (Table 18, symbol H); type: in vivo, barnyard grass (Echinochloa crus-galli); details: 269 g/ha
Summary of the method: as §3

[28] = test system: southern crabgrass; experiment: Test Example 4: herbicidal effect by soil treatment (Table 19, symbol F); type: in vivo, southern crabgrass (Digitaria ciliaris); details: 269 g/ha
Summary of the method: as §2

[29] = test system: redroot pigweed; experiment: Test Example 5: herbicidal effect by foliage application, plastic box (Table 20, symbol N); type: in vivo, redroot pigweed (Amaranthus retroflexus); details: foliage application, 269 g/ha, evaluated three weeks after application
Summary of the method: as §4

[30] = test system: rice flat sedge; experiment: Test Example 3: herbicidal effect by foliage application, Wagner pot (Table 18, symbol E); type: in vivo, rice flat sedge (Cyperus iria); details: 269 g/ha
Summary of the method: as §3

For `COCCOCOc1c(C)nn(C)c(=O)c1-c1c(-c2ccc(OCCSC)cc2)sc2ccc(F)cc12` [2-059], the “Herbicidal effect on A: late watergrass (grade 0-5)” value [1] was 3 (Herbicidal rate of 40% or more and less than 70%), the “herbicidal effect rating, I: wild oat” value [2] was 0 (Herbicidal rate of 5% or less (almost no effect)) and the “herbicidal effect on D (Chinese sprangletop), rating 0-5” value [3] was 5 (Herbicidal rate of 90% or more (almost completely withered)). For the same compound, the “herbicidal effect rating, H: barnyard grass” value [4] was 1 (Herbicidal rate of 5% or more and less than 20%), the “herbicidal effect rating, R: persian speedwell” value [5] was 5 (Herbicidal rate of 90% or more (almost completely withered)) and the “Herbicidal effect on B: Japanese bulrush (grade 0-5)” value [6] was 3 (Herbicidal rate of 40% or more and less than 70%). For the same compound, the “herbicidal effect rating, P: chickweed” value [7] was 4 (Herbicidal rate of 70% or more and less than 90%), the “herbicidal effect on F: southern crabgrass” value [8] was 5 (Herbicidal rate of 90% or more (almost completely withered)) and the “herbicidal effect on G: green foxtail” value [9] was 5 (Herbicidal rate of 90% or more (almost completely withered)). The “Herbicidal effect on C: oval-leafed pondweed (grade 0-5)” value [10] was 4 (Herbicidal rate of 70% or more and less than 90%), the “herbicidal effect rating, G: green foxtail” value [11] was 5 (Herbicidal rate of 90% or more (almost completely withered)) and the “herbicidal effect on J: blackgrass” value [12] was 5 (Herbicidal rate of 90% or more (almost completely withered)). The “herbicidal effect on P: chickweed” value [13] was 5 (Herbicidal rate of 90% or more (almost completely withered)), the “herbicidal effect on R: persian speedwell” value [14] was 5 (Herbicidal rate of 90% or more (almost completely withered)) and the “herbicidal effect rating, M: velvetleaf” value [15] was 1 (Herbicidal rate of 5% or more and less than 20%). For the same compound, the “herbicidal effect rating, J: blackgrass” value [16] was 0 (Herbicidal rate of 5% or less (almost no effect)), the “herbicidal effect on H: barnyard grass” value [17] was 5 (Herbicidal rate of 90% or more (almost completely withered)) and the “herbicidal effect on O: lambsquarters” value [18] was 5 (Herbicidal rate of 90% or more (almost completely withered)). The “herbicidal effect rating, O: lambsquarters” value [19] was 5 (Herbicidal rate of 90% or more (almost completely withered)), the “herbicidal effect rating, K: Italian ryegrass” value [20] was 4 (Herbicidal rate of 70% or more and less than 90%) and the “herbicidal effect rating, L: windgrass” value [21] was 4 (Herbicidal rate of 70% or more and less than 90%). The “herbicidal effect on L: windgrass” value [22] was 5 (Herbicidal rate of 90% or more (almost completely withered)), the “herbicidal effect on M: velvetleaf” value [23] was 5 (Herbicidal rate of 90% or more (almost completely withered)) and the “herbicidal effect on I: wild oat” value [24] was 4 (Herbicidal rate of 70% or more and less than 90%). The “herbicidal effect on K: Italian ryegrass” value [25] was 5 (Herbicidal rate of 90% or more (almost completely withered)), the “herbicidal effect rating, N: redroot pigweed” value [26] was 5 (Herbicidal rate of 90% or more (almost completely withered)) and the “herbicidal effect on H (barnyard grass), rating 0-5” value [27] was 5 (Herbicidal rate of 90% or more (almost completely withered)). The “herbicidal effect rating, F: southern crabgrass” value [28] was 4 (Herbicidal rate of 70% or more and less than 90%), the “herbicidal effect on N: redroot pigweed” value [29] was 5 (Herbicidal rate of 90% or more (almost completely withered)) and the “herbicidal effect on E (rice flat sedge), rating 0-5” value [30] was 5 (Herbicidal rate of 90% or more (almost completely withered)).
